According to patent publication US11149011B2, “Compounds and methods for IDO and TDO modulation, and indications therefor” (Plexxikon Inc., priority 2018, dated 2021):

Tests used:
IDO1 = molecular target: T1, IDO1 (Homo sapiens, UniProt P14902); experiment: IDO enzymatic assay; type: biochemical; details: geometric mean; read-out: IDO1 GMean: IC50 (μM) (Biochemical Assay)
T1 construct: His tag (N); made in house; host or cells: E. coli
Method: (§1) Human IDO or TDO with N-terminal His tag is purified in E. coli. The IDO enzymatic assay is performed using 6 nM IDO and 10 μM L-Trp in the presence of 10 mM ascorbic acid, 5 μM methylene blue, 100 nM catalase and 0.01% Tween 20 in 50 mM sodium phosphate buffer (pH 6.5). 19 μL of above reaction mixture is added to wells of 384 well reaction plate containing 1 μL of various concentrations of test compound or DMSO vehicle and incubated for 20 minutes at room temperature. The TDO enzymatic reaction assay is performed using 1 nM TDO and 350 μM L-Trp in the presence of 10 mM ascorbic acid, 0.4 μM methylene blue, 100 nM catalase and 0.01% Tween 20 in 50 mM sodium phosphate buffer (pH 6.5). 19 μL of above reaction mixture is added to wells of 384 well reaction plate containing 1 μL of various concentrations of test compound or DMSO vehicle and incubated for 70 minutes at room temperature. 16 wells containing all the components of reaction mixture and 5% DMSO serve as high control. 16 well containing all the components except enzyme of reaction mixture and 5% DMSO serves as low control. Both IDO and TDO enzymatic reactions are stopped by addition of 4 μL of 30% TCA and incubated 30 minutes at 50° C. to hydrolyze N-formylkynurenine produced by IDO or TDO to kynurenine. Upon measuring the kynurenine level, the percentage inhibition is calculated at individual concentrations relative to high and low controls. The data is analyzed by using nonlinear regression to generate IC50 values.

TDO = molecular target: T2, TDO (Homo sapiens, UniProt P48775); experiment: TDO enzymatic assay; details: geometric mean; read-out: TDO GMean: IC50 (μM) (Biochemical Assay)
T2 construct: His tag (N); made in house; host or cells: E. coli
Method: as §1

[1] = molecular target: T3, IDO1-expressing HEK293 cell clones (Homo sapiens, UniProt P14902); experiment: Cell based kynurenine assay, IDO1-expressing HEK293 cell clones; details: HEK293 cells, 24 hours of incubation, geometric mean; read-out: HEK293 IDO1 Kynurenine GMean IC50 (μM) (Cellular Assay)
T3 construct: expressed in transfected cells; host or cells: HEK293
Method: (§2) IDO1-expressing or TDO-expressing HEK293 cell clones are generated upon stable transfection of plasmids expressing human IDO or human TDO under the control of CMV promoter. Cells are selected in DMEM media supplemented with 10% fetal bovine serum and 1 mg/ml G418 at 37° C. in a humidified incubator supplied with 5% CO2. The assays are performed as follows.
(§3) Cells were seeded in a 96 well plate in 50 μL of culture media at a density of 2.5×10^4 per well. Serial dilutions of compounds (in total volume of 50 μL culture media) are added into cells. 4 wells containing 0.2% DMSO treated cells serve as high controls and 4 wells containing media only with 0.2% DMSO serve as low controls. After 24 hours of incubation, the supernatant was transferred to a 384 well reaction plate and the kynurenine level determined. The percentage inhibition at individual concentrations relative to high and low controls is calculated. The data is analyzed by using nonlinear regression to generate IC50 values.

[2] = molecular target: T4, TDO-expressing HEK293 cell clones (Homo sapiens, UniProt P48775); experiment: Cell based kynurenine assay, TDO-expressing HEK293 cell clones; details: HEK293 cells, 24 hours of incubation, geometric mean; read-out: HEK293 TDO Kynurenine GMean IC50 (μM) (Cellular Assay)
T4 construct: expressed in transfected cells; host or cells: HEK293
Method: as §2, §3

T1 sequence (P14902 whole entry): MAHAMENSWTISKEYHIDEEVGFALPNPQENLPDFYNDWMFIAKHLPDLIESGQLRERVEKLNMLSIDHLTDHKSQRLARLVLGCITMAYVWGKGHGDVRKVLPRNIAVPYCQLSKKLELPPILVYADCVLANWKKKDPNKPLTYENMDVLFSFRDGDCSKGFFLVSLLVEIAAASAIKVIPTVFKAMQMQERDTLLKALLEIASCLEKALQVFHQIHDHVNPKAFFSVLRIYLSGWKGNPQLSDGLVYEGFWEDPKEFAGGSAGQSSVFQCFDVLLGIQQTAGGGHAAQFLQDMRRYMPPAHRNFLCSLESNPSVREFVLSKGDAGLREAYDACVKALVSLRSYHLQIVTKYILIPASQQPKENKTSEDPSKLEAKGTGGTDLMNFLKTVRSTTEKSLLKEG
T3 sequence (P14902 whole entry): as above
T2 sequence (P48775 whole entry): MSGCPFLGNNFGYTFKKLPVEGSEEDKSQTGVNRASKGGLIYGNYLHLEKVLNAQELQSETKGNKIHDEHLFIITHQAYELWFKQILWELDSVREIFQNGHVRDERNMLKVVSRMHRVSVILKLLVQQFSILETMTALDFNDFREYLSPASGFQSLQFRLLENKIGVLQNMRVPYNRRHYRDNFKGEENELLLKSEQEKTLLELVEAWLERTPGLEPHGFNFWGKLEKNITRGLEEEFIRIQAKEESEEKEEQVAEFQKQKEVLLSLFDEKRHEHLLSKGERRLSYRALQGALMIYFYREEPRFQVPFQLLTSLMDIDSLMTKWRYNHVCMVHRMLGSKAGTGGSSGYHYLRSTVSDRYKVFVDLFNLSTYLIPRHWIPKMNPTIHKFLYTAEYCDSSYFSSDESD
T4 sequence (P48775 whole entry): as above

CC(C)(C1CCN(C(=O)CC2CCOCC2)CC1)C(O)c1cc(Cl)cc2[nH]ncc12 (centres unmarked) [Compound P-0050, 1-(4-(1-(6-chloro-1H-indazol-4-yl)-1-hydroxy-2-methylpropan-2-yl)piperidin-1-yl)-2-(tetrahydro-2H-pyran-4-yl)ethan-1-one]
IC50 (IDO1): 0.0001 to 10 µM | IC50 (TDO): 0.0001 to 10 µM | IC50 [1]: 0.0001 to 10 µM | IC50 [2]: 0.0001 to 10 µM

CC(C)(C1CCN(C(=O)CC(F)(F)F)CC1)C(O)c1cc(Cl)cc2[nH]ncc12 (centres unmarked) [Compound P-0051, 1-(4-(1-(6-chloro-1H-indazol-4-yl)-1-hydroxy-2-methylpropan-2-yl)piperidin-1-yl)-3,3,3-trifluoropropan-1-one]
IC50 (IDO1): 0.0001 to 10 µM | IC50 (TDO): 0.0001 to 10 µM | IC50 [1]: 0.0001 to 10 µM | IC50 [2]: 0.0001 to 10 µM

CC(C)(C1CCN(C(=O)C2CCC2)CC1)C(O)c1cc(Cl)cc2[nH]ncc12 (centres unmarked) [Compound P-0052, (4-(1-(6-chloro-1H-indazol-4-yl)-1-hydroxy-2-methylpropan-2-yl)piperidin-1-yl)(cyclobutyl)methanone]
IC50 (IDO1): 0.0001 to 10 µM | IC50 (TDO): 0.0001 to 10 µM | IC50 [1]: 0.0001 to 10 µM | IC50 [2]: 0.0001 to 10 µM

CC(C)(C1CCN(C(=O)c2ccc(C(F)(F)F)nc2)CC1)C(O)c1cc(Cl)cc2[nH]ncc12 (centres unmarked) [Compound P-0053, (4-(1-(6-chloro-1H-indazol-4-yl)-1-hydroxy-2-methylpropan-2-yl)piperidin-1-yl)(6-(trifluoromethyl)pyridin-3-yl)methanone]
IC50 (IDO1): 0.0001 to 10 µM | IC50 (TDO): 0.0001 to 10 µM | IC50 [1]: 0.0001 to 10 µM | IC50 [2]: 0.0001 to 10 µM

CCN(CC)CC(=O)N1CCC(C(C)(C)[C@H](O)c2cc(Cl)cc3cn[nH]c23)CC1 [Compound P-0058, (S)-1-(4-(1-(5-chloro-1H-indazol-7-yl)-1-hydroxy-2-methylpropan-2-yl)piperidin-1-yl)-2-(diethylamino)ethan-1-one]
IC50 (IDO1): 0.0001 to 10 µM | IC50 (TDO): 0.0001 to 10 µM | IC50 [1]: 0.0001 to 10 µM | IC50 [2]: 0.0001 to 10 µM

CC(C)(C1CCN(C(=O)CN2CCCC2)CC1)[C@H](O)c1cc(Cl)cc2cn[nH]c12 [Compound P-0059, (S)-1-(4-(1-(5-chloro-1H-indazol-7-yl)-1-hydroxy-2-methylpropan-2-yl)piperidin-1-yl)-2-(pyrrolidin-1-yl)ethan-1-one]
IC50 (IDO1): 0.0001 to 10 µM | IC50 (TDO): 0.0001 to 10 µM | IC50 [1]: 0.0001 to 10 µM | IC50 [2]: 0.0001 to 10 µM

COCCONC(=O)N1CCC(C(C)(C)[C@H](O)c2cc(Cl)cc3cn[nH]c23)CC1 [Compound P-0062, (S)-4-(1-(5-chloro-1H-indazol-7-yl)-1-hydroxy-2-methylpropan-2-yl)-N-(2-methoxyethoxy)piperidine-1-carboxamide]
IC50 (IDO1): 0.0001 to 10 µM | IC50 (TDO): 0.0001 to 10 µM | IC50 [1]: 0.0001 to 10 µM | IC50 [2]: 0.0001 to 10 µM

CN(C)CCONC(=O)N1CCC(C(C)(C)[C@H](O)c2cc(Cl)cc3cn[nH]c23)CC1 [Compound P-0063, (S)-4-(1-(5-chloro-1H-indazol-7-yl)-1-hydroxy-2-methylpropan-2-yl)-N-(2-(dimethylamino)ethoxy)piperidine-1-carboxamide]
IC50 (IDO1): 0.0001 to 10 µM | IC50 (TDO): 0.0001 to 10 µM | IC50 [1]: 0.0001 to 10 µM | IC50 [2]: 0.0001 to 10 µM

CC(C)ONC(=O)N1CCC(C(C)(C)[C@H](O)c2cc(Cl)cc3cn[nH]c23)CC1 [Compound P-0064, (S)-4-(1-(5-chloro-1H-indazol-7-yl)-1-hydroxy-2-methylpropan-2-yl)-N-isopropoxypiperidine-1-carboxamide]
IC50 (IDO1): 0.0001 to 10 µM | IC50 (TDO): 0.0001 to 10 µM | IC50 [1]: 0.0001 to 10 µM | IC50 [2]: 0.0001 to 10 µM

CC(C)(C1CCN(C(=O)NOCC(F)(F)F)CC1)[C@H](O)c1cc(Cl)cc2cn[nH]c12 [Compound P-0065, (S)-4-(1-(5-chloro-1H-indazol-7-yl)-1-hydroxy-2-methylpropan-2-yl)-N-(2,2,2-trifluoroethoxy)piperidine-1-carboxamide]
IC50 (IDO1): 0.0001 to 10 µM | IC50 (TDO): 0.0001 to 10 µM | IC50 [1]: 0.0001 to 10 µM | IC50 [2]: 0.0001 to 10 µM

CC(C)(C1CCN(C(=O)NOc2ccccc2)CC1)[C@H](O)c1cc(Cl)cc2cn[nH]c12 [Compound P-0066, (S)-4-(1-(5-chloro-1H-indazol-7-yl)-1-hydroxy-2-methylpropan-2-yl)-N-phenoxypiperidine-1-carboxamide]
IC50 (IDO1): 0.0001 to 10 µM | IC50 (TDO): 0.0001 to 10 µM | IC50 [1]: 0.0001 to 10 µM | IC50 [2]: 0.0001 to 10 µM

CC(C)(N)C(=O)N1CCC(C(C)(C)[C@H](O)c2cc(Cl)cc3cn[nH]c23)CC1 [Compound P-0067, (S)-2-amino-1-(4-(1-(5-chloro-1H-indazol-7-yl)-1-hydroxy-2-methylpropan-2-yl)piperidin-1-yl)-2-methylpropan-1-one]
IC50 (IDO1): 0.0001 to 10 µM | IC50 (TDO): 0.0001 to 10 µM | IC50 [1]: 0.0001 to 10 µM | IC50 [2]: 0.0001 to 10 µM

CCCS(=O)(=O)N1CCC(C(C)(C)C(O)c2cc(Cl)cc3[nH]ncc23)CC1 (centres unmarked) [Compound P-0071]
IC50 (IDO1): 0.0001 to 10 µM | IC50 (TDO): 0.0001 to 10 µM | IC50 [1]: 0.0001 to 10 µM | IC50 [2]: 0.0001 to 10 µM

CCS(=O)(=O)N1CCC(C(C)(C)C(O)c2cc(Cl)cc3[nH]ncc23)CC1 (centres unmarked) [Compound P-0072, 1-(6-chloro-1H-indazol-4-yl)-2-(1-(ethylsulfonyl)piperidin-4-yl)-2-methylpropan-1-ol]
IC50 (IDO1): 0.0001 to 10 µM | IC50 (TDO): 0.0001 to 10 µM | IC50 [1]: > 10 µM | IC50 [2]: 0.0001 to 10 µM

CC(C)(C1CCN(S(=O)(=O)C2CC2)CC1)C(O)c1cc(Cl)cc2[nH]ncc12 (centres unmarked) [Compound P-0073, 1-(6-chloro-1H-indazol-4-yl)-2-(1-(cyclopropylsulfonyl)piperidin-4-yl)-2-methylpropan-1-ol]
IC50 (IDO1): 0.0001 to 10 µM | IC50 (TDO): 0.0001 to 10 µM | IC50 [1]: > 10 µM | IC50 [2]: 0.0001 to 10 µM

CC(C)NC(=O)N1CCC(C(C)(C)C(O)c2cc(Cl)cc3[nH]ncc23)CC1 (centres unmarked) [Compound P-0074, 4-(1-(6-chloro-1H-indazol-4-yl)-1-hydroxy-2-methylpropan-2-yl)-N-isopropylpiperidine-1-carboxamide]
IC50 (IDO1): 0.0001 to 10 µM | IC50 (TDO): 0.0001 to 10 µM | IC50 [1]: 0.0001 to 10 µM | IC50 [2]: 0.0001 to 10 µM

CC(C)(C1CCN(C(=O)Nc2cccnc2)CC1)C(O)c1cc(Cl)cc2[nH]ncc12 (centres unmarked) [Compound P-0075, 4-(1-(6-chloro-1H-indazol-4-yl)-1-hydroxy-2-methylpropan-2-yl)-N-(pyridin-3-yl)piperidine-1-carboxamide]
IC50 (IDO1): 0.0001 to 10 µM | IC50 (TDO): 0.0001 to 10 µM | IC50 [1]: > 10 µM | IC50 [2]: 0.0001 to 10 µM

CCNC(=O)N1CCC(C(C)(C)C(O)c2cc(Cl)cc3[nH]ncc23)CC1 (centres unmarked) [Compound P-0076, 4-(1-(6-chloro-1H-indazol-4-yl)-1-hydroxy-2-methylpropan-2-yl)-N-ethylpiperidine-1-carboxamide]
IC50 (IDO1): 0.0001 to 10 µM | IC50 (TDO): 0.0001 to 10 µM | IC50 [1]: 0.0001 to 10 µM | IC50 [2]: 0.0001 to 10 µM

CCCNC(=O)N1CCC(C(C)(C)C(O)c2cc(Cl)cc3[nH]ncc23)CC1 (centres unmarked) [Compound P-0077, 4-(1-(6-chloro-1H-indazol-4-yl)-1-hydroxy-2-methylpropan-2-yl)-N-propylpiperidine-1-carboxamide]
IC50 (IDO1): 0.0001 to 10 µM | IC50 (TDO): 0.0001 to 10 µM | IC50 [1]: 0.0001 to 10 µM | IC50 [2]: 0.0001 to 10 µM

CC(C)(C1CCN(C(=O)NC2CCC2)CC1)C(O)c1cc(Cl)cc2[nH]ncc12 (centres unmarked) [Compound P-0078, 4-(1-(6-chloro-1H-indazol-4-yl)-1-hydroxy-2-methylpropan-2-yl)-N-cyclobutylpiperidine-1-carboxamide]
IC50 (IDO1): 0.0001 to 10 µM | IC50 (TDO): 0.0001 to 10 µM | IC50 [1]: 0.0001 to 10 µM | IC50 [2]: 0.0001 to 10 µM
